Patent publication US10166237B2, “Compounds and methods for inducing chondrogenesis” (The Scripps Research Institute, priority 2011, dated 2019)
Like-named read-outs stand apart in the source and are kept apart here.

Tests used:
[1] = system: human mesenchymal stem cells (hMSCs); experiment: chondrogenic nodule formation by hMSCs (high throughput screen); format: cell-based
In short: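 Primary hMSCs (10^4/well) in serum-free DMEM exposed to compounds at 5 μM for 4 days. Chondrogenic nodules stained with Nile red (binds collagens) and counted by high-content imaging with 488 laser excitation. In 96-well follow-up, 50,000 cells/well treated 4 days, formalin-fixed, stained with 1 μg/ml Rhodamine B.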

[2] = system: bovine cartilage explants; experiment: cytokine-induced GAG release from cartilage explants ex vivo; format: cell-based; details: TNFα and oncostatin M, 72 hours; up to
From the text: In the screen, hMSCs were used as a surrogate to future targeting of the resident MSCs with the cartilage joint. It was in that setting upon which we identified PRO1. In a joint injury, the primary cell type a therapeutic would have contact with is the chondrocyte. Although cartilage or chondrocyte-targeted screening has not lead to the development of a successful drug modifying osteoarthritis drug (DMOAD) to date, it is believed that a stem cell-based therapeutic would protect and even repair the existing chondrocytes. Therefore, protection of the articular chondrocytes and cartilage from a mature bovine knee was assessed. PRO1 and its analogues were incubated with primary bovine chondrocytes or cartilage explants cultures grown in the presence of TNFα and oncostatin M to mimic the cytokine-induced damage that can occur during OA. In the presence of the cytokine cocktail, in vitro cultured primary chondrocytes released 4-5 fold more nitric oxide (NO) than the untreated chondrocytes (50 μM vs 10 μM) as measured by the Greiss reaction. […]
Primary hMSCs were plated (10,000/well) in 384-well plates and cultured for 18 days. […] 20 μl of the supernatant was mixed with 20 μl of the Greiss reagent and quantitated at 540 nm as described by the Promega kit instructions. […]

human chondrocytes = experiment: proliferation of human chondrocytes; format: cell-based
FLNA = molecular target: T1, FLNA (Homo sapiens, UniProt P21333); experiment: photo-crosslinking of biotin-PRO1-azide in hMSCs, competition with PRO1, proteomics; format: binding
T1 construct: endogenous in cells; host or cells: hMSCs (primary human mesenchymal stem cells)
Description: To identify the interaction of PRO1 and FLNA, 5 μM biotin-PRO1-azide was added to hMSCs in the differentiation media in the absence or presence of a 50-fold molar excess of PRO1 and incubated for 30 min. 254-nm light was applied to the cells for another 30 min. Cells were lysed in lysis buffer (20 mM Tris-HCl, pH=7.4, 150 mM NaCl, 1 mM EDTA, 1 mM DTT, 0.5% v/v Triton X-100, protease inhibitor cocktail), passed through 26 1/2 gauge needles 20 times, and centrifuged at 12,000 rpm for 30 min. The supernatant was subjected to ammonium sulfate precipitation fractionation. Fractions were analyzed by Western blotting using an anti-biotin antibody (FIG. 6A). Fractions containing 20-40% ammonium sulfate were precipitated using trichloroacetic acid (TCA) and resuspended in isoelectric focusing sample buffer and subjected to 2D SDS-PAGE and Western blotting against biotin. Proteins specifically labeled by biotin-PRO1-azide were recognized, and the corresponding spots on a parallel gel visualized by silver staining were excised. These proteins were identified by mass spectrometry proteomics analysis. hMSCs were treated in monolayer or pellet culture (as indicated in FIG. 6B-6C) for 24-72 hrs. 15 μg of protein was separated by SDS-PAGE and hMSCs were fractionated (as indicated in FIG. 6B-6C) into cytosolic and nuclear fractions or monomeric and filamentous components as previously described.

FLNA/PEBP2β = molecular target: T2, FLNA/PEBP2β (Homo sapiens, UniProt P21333); experiment: immunoprecipitation and Western blotting of FLNA/PEBP2β interaction in hMSCs; format: cell-based; details: 12 hr treatment
T2 construct: endogenous in cells; host or cells: hMSCs (primary human mesenchymal stem cells)
Description: hMSCs were treated with […] for 12 hr and lysed as above. 2 μg of anti-PEBP23 antibody was added to the cell lysate and incubated overnight at 4° C. prior to addition of agarose beads bearing immobilized protein A/G. After incubation of the lysate with the protein A/G beads for 1 hour, the beads were collected by centrifugation at 2,000 rpm and washed 3 times with lysis buffer. 30 μL of 2×SDS sample buffer was added to the beads and boiled for 5 min.

[3] = in vivo, 0.05 mg/kg

T2 sequence (P21333 2-2647 limits assumed): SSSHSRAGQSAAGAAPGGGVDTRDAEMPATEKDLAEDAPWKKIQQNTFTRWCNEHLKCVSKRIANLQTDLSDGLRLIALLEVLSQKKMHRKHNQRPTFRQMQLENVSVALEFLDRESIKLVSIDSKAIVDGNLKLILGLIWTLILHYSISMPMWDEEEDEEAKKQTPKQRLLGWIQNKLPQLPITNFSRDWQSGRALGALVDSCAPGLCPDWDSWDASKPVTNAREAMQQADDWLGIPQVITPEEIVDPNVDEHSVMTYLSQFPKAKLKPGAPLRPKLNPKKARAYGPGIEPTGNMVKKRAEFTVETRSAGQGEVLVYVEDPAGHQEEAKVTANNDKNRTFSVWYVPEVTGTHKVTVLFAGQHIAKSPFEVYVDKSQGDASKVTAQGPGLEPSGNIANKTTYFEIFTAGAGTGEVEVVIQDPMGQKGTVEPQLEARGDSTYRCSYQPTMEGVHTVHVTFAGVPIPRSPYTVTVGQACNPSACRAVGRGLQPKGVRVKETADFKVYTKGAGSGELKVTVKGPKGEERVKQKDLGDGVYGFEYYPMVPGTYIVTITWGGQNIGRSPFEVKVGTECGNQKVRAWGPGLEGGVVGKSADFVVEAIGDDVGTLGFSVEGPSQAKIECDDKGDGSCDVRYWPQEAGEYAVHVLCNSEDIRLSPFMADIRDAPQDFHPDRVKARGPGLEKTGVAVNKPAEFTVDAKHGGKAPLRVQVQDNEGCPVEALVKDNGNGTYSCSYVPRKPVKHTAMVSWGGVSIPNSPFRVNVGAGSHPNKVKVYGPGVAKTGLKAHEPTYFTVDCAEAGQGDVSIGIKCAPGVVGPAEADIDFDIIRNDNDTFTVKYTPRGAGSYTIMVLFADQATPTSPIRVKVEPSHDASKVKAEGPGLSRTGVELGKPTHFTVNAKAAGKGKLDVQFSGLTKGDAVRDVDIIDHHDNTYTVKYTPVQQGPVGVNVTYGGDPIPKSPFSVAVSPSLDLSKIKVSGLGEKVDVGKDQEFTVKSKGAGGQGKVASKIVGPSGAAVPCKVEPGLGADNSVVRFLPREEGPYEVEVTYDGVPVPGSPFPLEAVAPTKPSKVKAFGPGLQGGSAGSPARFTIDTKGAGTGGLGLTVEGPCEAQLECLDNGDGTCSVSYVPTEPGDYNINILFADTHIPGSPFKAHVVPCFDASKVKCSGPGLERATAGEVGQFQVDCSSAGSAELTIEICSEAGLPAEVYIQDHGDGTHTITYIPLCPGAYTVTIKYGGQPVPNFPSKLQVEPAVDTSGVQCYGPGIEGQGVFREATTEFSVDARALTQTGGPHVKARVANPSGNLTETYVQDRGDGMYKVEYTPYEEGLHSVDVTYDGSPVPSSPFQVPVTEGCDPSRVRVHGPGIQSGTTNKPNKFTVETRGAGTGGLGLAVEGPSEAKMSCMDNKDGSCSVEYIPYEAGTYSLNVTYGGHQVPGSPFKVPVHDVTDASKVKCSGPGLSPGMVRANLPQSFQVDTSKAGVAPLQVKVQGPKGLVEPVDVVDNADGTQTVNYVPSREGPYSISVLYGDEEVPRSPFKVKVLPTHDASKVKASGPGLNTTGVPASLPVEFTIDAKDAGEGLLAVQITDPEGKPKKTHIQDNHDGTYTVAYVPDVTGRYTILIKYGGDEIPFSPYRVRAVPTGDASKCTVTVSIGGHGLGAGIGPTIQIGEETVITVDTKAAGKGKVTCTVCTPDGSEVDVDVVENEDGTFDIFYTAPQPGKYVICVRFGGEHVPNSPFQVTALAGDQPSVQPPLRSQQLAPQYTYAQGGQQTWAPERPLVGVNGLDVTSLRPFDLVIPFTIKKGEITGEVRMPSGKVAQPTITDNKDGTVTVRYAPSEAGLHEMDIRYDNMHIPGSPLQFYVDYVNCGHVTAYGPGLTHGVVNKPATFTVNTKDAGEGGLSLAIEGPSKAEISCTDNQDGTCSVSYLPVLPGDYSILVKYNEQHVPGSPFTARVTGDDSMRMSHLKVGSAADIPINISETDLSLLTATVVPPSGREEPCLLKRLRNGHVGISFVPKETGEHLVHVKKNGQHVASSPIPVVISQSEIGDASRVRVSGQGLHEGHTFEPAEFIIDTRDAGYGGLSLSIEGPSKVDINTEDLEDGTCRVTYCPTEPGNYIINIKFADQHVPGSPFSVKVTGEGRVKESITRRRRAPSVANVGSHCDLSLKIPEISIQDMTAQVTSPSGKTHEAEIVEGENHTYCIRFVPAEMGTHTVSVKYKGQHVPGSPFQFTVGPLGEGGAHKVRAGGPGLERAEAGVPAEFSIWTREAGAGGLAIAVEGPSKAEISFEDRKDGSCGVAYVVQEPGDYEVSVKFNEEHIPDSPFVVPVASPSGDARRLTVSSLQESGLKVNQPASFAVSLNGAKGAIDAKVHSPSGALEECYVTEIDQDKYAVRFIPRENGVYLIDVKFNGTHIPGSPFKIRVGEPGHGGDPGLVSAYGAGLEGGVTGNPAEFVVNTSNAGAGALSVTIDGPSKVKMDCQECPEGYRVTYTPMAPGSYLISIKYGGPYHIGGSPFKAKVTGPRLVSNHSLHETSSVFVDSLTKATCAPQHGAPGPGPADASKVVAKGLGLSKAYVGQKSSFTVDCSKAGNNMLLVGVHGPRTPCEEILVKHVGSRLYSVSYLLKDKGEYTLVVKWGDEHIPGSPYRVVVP

O=C(O)c1ccccc1C(=O)Nc1ccc(-c2ccccc2)cc1 [AKT]
cartilage nodule formation ([1]; 100 nM, 4 days, Rhodamine B stain): Rapid Phenotypic Cartilage Nodule Formation | EC50 ([1]; Homo sapiens, Mesenchymal stem cells, 96 h, primary screen, Nile red stained nodules, 4 days, read-out: EC50): 0.1 µM | EC50 ([1]; first value of the cell (before the slash), read-out: CHONDROGENIC μM EC50): 0.225 µM | reduction of cytokine-induced release of glycosaminoglycans (GAG) [2]: up to 60% | proliferative advantage (human chondrocytes): < 1.5 fold | interaction with FLNA (FLNA): Interacts with FLNA | protein interactions between FLNA and PEBP2β (FLNA/PEBP2β): Inhibits the Protein Interactions | Plasma Conc. [3]: BLQ
